Values of other authors as cited in patent EP0343306A1, “Liquid pharmaceutical preparation based on theophylline with a retarding effect, and process for producing it” (CARULLA VEKAR, S.A., priority 1988, dated 1989).

Conditions: in vivo

Cn1c(=O)c2[nH]cnc2n(C)c1=O [theophylline]
plasmatic levels associated with a significant incidence of side effects: above 20 mcg/ml
